The target in data set [1] is T1, BAT-LOV* (Halorubrum hochstenium, UniProt M0FIW0).
T1 construct: gene C467_03291; isolated LOV* domain, residues 141-275, synthetic gene, N-terminal His6 tag (pET28a), E. coli BL21(DE3), endogenous flavin removed by Q XL, monomer; full-length protein also has receiver, GAF and HTH modules
As to the kind of experiment: reconstitution with excess flavin, absorption spectroscopy. The format is binding. The settings on record: incubated at least 12 h in 0.5 M NaCl, unbound flavin removed by 10 kDa filter.

Data set [2] concerns the target T1, BAT-LOV*. As to the kind of experiment: reconstitution with excess flavin, absorption spectroscopy, SEC. Conditions: incubated at least 12 h in 0.5 M NaCl, unbound flavin removed by 10 kDa filter. The format is binding.
The target of data set [3] is T2, VVD-III (VVD Δ36, C108A:M135I:M165I) (Neurospora crassa, UniProt Q9C3Y6, C108A/M135I/M165I/Q182L).
T2 construct: lacks the first 36 residues, C108A/M135I/M165I, pET28a, Ni:NTA purified from E. coli BL21(DE3)
T2 sequence (Q9C3Y6 entry or part of it C108A/M135I/M165I/Q182L): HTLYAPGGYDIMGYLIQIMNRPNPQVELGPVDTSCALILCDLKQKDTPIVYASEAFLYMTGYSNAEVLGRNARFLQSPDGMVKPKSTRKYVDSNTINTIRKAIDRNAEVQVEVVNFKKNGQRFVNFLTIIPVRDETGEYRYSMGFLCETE
As to the kind of experiment: photoreduction, SEC. The format is binding. Conditions: flavin bound on purification; 448-nm laser 30 mW, 50 mM Hepes pH 8, 150 mM NaCl.

Data set [4] addresses T3, VVD-III (VVD Δ36, C108A:M135I:M165I) (Neurospora crassa, UniProt Q9C3Y6, Y40E/C108A/M135I/M165I).
T3 construct: lacks the first 36 residues, C108A/M135I/M165I, pET28a, Ni:NTA purified from E. coli BL21(DE3)
As to the kind of experiment: photoreduction, SEC. The format is binding. Conditions: flavin bound on purification; 448-nm laser 30 mW, 50 mM Hepes pH 8, 150 mM NaCl.

For data set [5], the target named is T4, BAT-LOV* (Halorubrum hochstenium, UniProt M0FIW0, P188C).
T4 construct: gene C467_03291; isolated LOV* domain, residues 141-275, synthetic gene, N-terminal His6 tag (pET28a), E. coli BL21(DE3), endogenous flavin removed by Q XL, monomer; full-length protein also has receiver, GAF and HTH modules
T4 sequence (M0FIW0 entry or part of it P188C): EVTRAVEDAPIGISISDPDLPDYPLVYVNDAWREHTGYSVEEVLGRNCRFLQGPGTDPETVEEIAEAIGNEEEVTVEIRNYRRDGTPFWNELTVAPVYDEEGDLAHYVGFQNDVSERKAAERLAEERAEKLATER
Kind of data set: photoreduction by absorption spectroscopy. Conditions: 448-nm laser; flavin presumably FAD as for the wild type. It is filed as binding.

The target in data set [6] is T5, BAT-LOV* (Halorubrum hochstenium, UniProt M0FIW0, Y163F/W172F/Y247F).
T5 construct: gene C467_03291; isolated LOV* domain, residues 141-275, synthetic gene, N-terminal His6 tag (pET28a), E. coli BL21(DE3), endogenous flavin removed by Q XL, monomer; full-length protein also has receiver, GAF and HTH modules
T5 sequence (M0FIW0 entry or part of it Y163F/W172F/Y247F): as the sequence (M0FIW0 entry or part of it P188C) above, with Y23F, W32F, C48P, Y107F counted along it
Kind of data set: FAD reconstitution, photoreduction by absorption spectroscopy, SEC. The format is binding. Conditions: BAT-III; 448-nm laser.

Data set [7] deals with the molecule itself. As to the kind of experiment: SEC; VVD-III as purified from E. coli passed through a SEC column; flavin redox states separate; blue-coloured, NSQ-containing protein.

The source of these data is publication PMC4682037, “Signal transduction in light–oxygen–voltage receptors lacking the adduct-forming cysteine residue” (Nature Communications, 2015).

T1 sequence (M0FIW0 entry or part of it): as the sequence (M0FIW0 entry or part of it P188C) above, with C48P counted along it
T3 sequence (Q9C3Y6 entry or part of it Y40E/C108A/M135I/M165I): as the sequence (Q9C3Y6 entry or part of it C108A/M135I/M165I/Q182L) above, with Y4E, L146Q counted along it

`Cc1cc2nc3c(=O)[nH]c(=O)nc-3n(C[C@H](O)[C@H](O)[C@H](O)CO)c2cc1C` [riboflavin]: the “reconstitution with excess flavin, absorption spectroscopy” value in data set [1] is “could be reconstituted with either FAD, FMN or riboflavin after incubation with excess cofactor”.

`Cc1cc2nc3c(=O)[nH]c(=O)nc-3n(C[C@H](O)[C@H](O)[C@H](O)COP(=O)(O)OP(=O)(O)OC[C@H]3O[C@@H](n4cnc5c(N)ncnc54)[C@H](O)[C@@H]3O)c2cc1C` [FAD]: the “reconstitution with excess flavin, absorption spectroscopy, SEC” value in data set [2] (flavin-free protein elutes in extended conformation) was “could be reconstituted with either FAD, FMN or riboflavin after incubation with excess cofactor”. The “photoreduction, SEC” value in data set [3] is “Substituting the conserved Gln182 that interacts with flavin N5 to Leu”; in data set [4], “both the light-adapted NSQ and dark-adapted oxidized quinone states elute from SEC as monomers”. Also, the “photoreduction by absorption spectroscopy” value in data set [5] is “BAT P188C photoreduces to the HQ with little NSQ intermediate”. Also, the “FAD reconstitution, photoreduction by absorption spectroscopy, SEC” value in data set [6] was “recombinantly expressed, FAD-reconstituted (a) BAT-LOV* and (b) BAT-III (Y163F:W172F:Y247F)”.

As to `Cc1cc2nc3c(=O)[nH]c(=O)nc-3n(C[C@H](O)[C@H](O)[C@H](O)COP(=O)(O)O)c2cc1C` [FMN], the “reconstitution with excess flavin, absorption spectroscopy, SEC” value in data set [2] was “could be reconstituted with either FAD, FMN or riboflavin after incubation with excess cofactor”.

B1: VVD-III (VVD Δ36, C108A:M135I:M165I) (domain or fragment, Neurospora, UniProt Q9C3Y6 37-186, looked up)
chain: HTLYAPGGYDIMGYLIQIMNRPNPQVELGPVDTSCALILCDLKQKDTPIVYASEAFLYMTGYSNAEVLGRNARFLQSPDGMVKPKSTRKYVDSNTINTIRKAIDRNAEVQVEVVNFKKNGQRFVNFLTIIPVRDETGEYRYSMGFQCETE
notes: Vivid (VVD), LOV photoreceptor of Neurospora; lacks the first 36 N-terminal residues; C108A, M135I, M165I; Dark-adapted: oxidized quinone; light-adapted: neutral semiquinone (NSQ); also called Vivid; source: E. coli BL21(DE3), purified (Ni:NTA, SEC)
On to B1, for which the “stoichiometry N” value in data set [7] is 2.

By stoichiometry N is commonly meant a count of units in the complex or per binding partner.
